# B1: MAG: transmembrane glycoprotein containing five Ig-like domains; adhesion molecule of the immunoglobin superfamily (protein, UniProt P20916 20-626, looked up)
# Myelin-associated glycoprotein: GHWGAWMPSSISAFEGTCVSIPCRFDFPDELRPAVVHGVWYFNSPYPKNYPPVVFKSRTQVVHESFQGRSRLLGDLGLRNCTLLLSNVSPELGGKYYFRGDLGGYNQYTFSEHSVLDIVNTPNIVVPPEVVAGTEVEVSCMVPDNCPELRPELSWLGHEGLGEPAVLGRLREDEGTWVQVSLLHFVPTREANGHRLGCQASFPNTTLQFEGYASMDVKYPPVIVEMNSSVEAIEGSHVSLLCGADSNPPPLLTWMRDGTVLREAVAESLLLELEEVTPAEDGVYACLAENAYGQDNRTVGLSVMYAPWKPTVNGTMVAVEGETVSILCSTQSNPDPILTIFKEKQILSTVIYESELQLELPAVSPEDDGEYWCVAENQYGQRATAFNLSVEFAPVLLLESHCAAARDTVQCLCVVKSNPEPSVAFELPSRNVTVNESEREFVYSERSGLVLTSILTLRGQAQAPPRVICTARNLYGAKSLELPFQGAHRLMWAKIGPVGAVVAFAILIAIVCYITQTRRKKNVTESPSFSAGDNPPVLFSSDFRISGAPEKYESERRLGSERRLLGLRGEPPELDLSYSHSDLGKRPTKDSYTLTEELAEYAEIRVK
# Key:
# [1] = test system: dorsal root ganglion (DRG) explants; assay: Axonal protection of DRG explants exposed to vincristine; type: cell-based
# Experimental: Panels A to D are representative images of dorsal root ganglion (DRG) explants after exposure to 50 nM vincristine at 0 and 60 hours. Explants in panels A and B were treated with 50 nM vincristine and 0.5 μg/ml peptide while those in panels C and D were treated with vincristine alone.
# DRG explants were exposed to 50 nM vincristine. Explants in panels A and B were treated with 50 nM vincristine and 0.5 μg/ml RGD peptide while those in panels C and D were treated with vincristine alone. […] The cyclo-GRGDSP (SEQ ID NO:3) peptide potently promoted axonal survival in cell culture with EC50=0.5 μM (FIG. 1.E).
# [2] = Bioavailability and bio-distribution by LC-QTOF mass spectrometer; type: in vivo, C57B1 mice; settings: intraperitoneal 1 μg/g
# Experimental: In contrast, there was no decrease with the co-administration of the peptide (n=10 mice).
# To test the bioavailability and bio-distribution of the RGD peptides in vivo, C57B1 mice were given intraperitoneal injection of 1 μg/g weight of cylco-GRGDSP (SEQ ID NO:3) in normal saline (1 mg/ml). The mice were sacrificed at 30, 60, 120, and 240 minutes. Blood, brain, skin, muscle, and tibial and sciatic nerves were collected. The presence of the peptide was detected using LC-QTOF mass spectrometer.
# [3] = test system: acrylamide intoxicated MAG−/− mice; assay: Acrylamide-induced axonal degeneration in MAG−/− mice; type: in vivo; settings: for severe gait instability / axonal swelling, beading and segmentation of Aβ fibers in the skin / neuromuscular junction morphology: daily intraperitoneal injection; for severe gait instability: acrylamide for 10 days; for axonal swelling, beading and segmentation of Aβ fibers in the skin / neuromuscular junction morphology: acrylamide, FIG. 2E; for change in amplitudes of CMAP: electrophysiological testing, FIG. 2D
# From the text: Furthermore, the RGD peptides can also prevent axonal and/or neuronal degeneration in vivo. See Example 3. Administration of acrylamide, a well characterized toxin, causes axonal “dying back” or degeneration without lymphocytic inflammatory response (Schaumburg et al., 1974, Ko et al., 2000; Ewaleifoh et al, 2012) in wild-type and MAG knockout mice. […] The acrylamide treated MAG−/− mice developed more rapid and severe motor impairment. Most mice fell off the rod even during pretraining and had profound decline in the retention time on the Rotarod (FIG. 2B). There was a decrease in amplitudes of CMAP (FIG. 2.D). […] The neuromuscular junction morphology was normal. On gross observation, there was only mild gait unsteadiness. […] Thus, the RGD peptide was able to prevent significant axonal degeneration that is typically seen in MAG−/− mice treated with acrylamide.
# To test that RGD peptides may prevent axonal degeneration in a murine model, acrylamide, a well characterized toxin causing axonal “dying back” or degeneration without lymphocytic inflammatory response (Schaumburg et al., 1974, Ko et al., 2000, Ewaleifoh et at, 2012), was administered to wild-type and MAG−/− mice. When MAG knockout mice at 6 weeks of age were exposed to acrylamide for 10 days, there was markedly impaired gait with marked sensory ataxia and spreading of the toes of the hind limbs. The acrylamide treated MAG−/− mice developed more rapid and severe motor impairment. Most mice fell off the rod even during pretraining and had profound decline in the retention time on the Rotarod (FIG. 2B). There was a 68% decrease in amplitudes of CMAP (FIG. 2.D).
# The neuromuscular junction morphology was normal (FIG. 2E). On gross observation, there was only mild gait unsteadiness.
# Trembler J mice = assay: Trembler J mice, model of Charcot-Marie-Tooth type 1; type: in vivo; settings: intravenous or intraperitoneal daily injection
# From the text: (§1) Similar findings were also seen in other murine models such as Trembler J mice, a murine model of Charcot-Marie-Tooth type 1, MOG-EAE mice, model of multiple sclerosis with significant axonal loss, and Streptozotocin-induced diabetic mouse model. […] Application of the RGD peptide allowed the diseased mice to have a normal or near normal phenotype similar to untreated wild-type animals.
# as §1, with “including (1)” for “such as”, “1, (2)” for “1,”, “and (3)” for “and”, “The” for “Application of the”
# MOG-EAE mice = assay: MOG-EAE mice, model of multiple sclerosis; type: in vivo; settings: intravenous or intraperitoneal daily injection
# From the text: as §1
# as §1, with “including (1)” for “such as”, “1, (2)” for “1,”, “and (3)” for “and”, “The” for “Application of the”
# [4] = test system: Streptozotocin-induced diabetic mouse model; assay: Streptozotocin-induced diabetic mouse model; type: in vivo; settings: intravenous or intraperitoneal daily injection
# From the text: as §1
# as §1, with “including (1)” for “such as”, “1, (2)” for “1,”, “and (3)” for “and”, “The” for “Application of the”
# [5] = test system: postnatal (P4-5) dorsal root ganglion (DRG) and cerebrocortical neurons; assay: Prevention of axonal/neuronal death in cultured neurons; type: cell-based; settings: in vitro; peptides in linear as well as cyclo forms; FIG. 1
# Experimental: Several small RGD peptides containing RGD sequence were generated and their axonal protective effect was tested. The RGD peptides included RGDYK (SEQ ID NO:1), GRGDS (SEQ ID NO:2), FRGDLG (SEQ ID NO:4), FRGDSP (SEQ ID NO:9), IRGDSP (SEQ ID NO:15), RRGDQT (SEQ ID NO:5), KRGDNF (SEQ ID NO:6), PRGDLT (SEQ ID NO:7) in linear as well as cyclo forms.
# β1-integrin receptor = assay: Blocking of the peptide's axonal protection by integrin antagonists; type: cell-based
# From the text: The RGD motif is known to bind to the integrin receptor. The addition of the peptides of the present invention to primary DRG neuronal cultures induced rapid phosphorylation of neurofilament (NFH), change in NAD synthase nicotinamide mononucleotide adenylyltransferase (NMNAT) expression, and focal adhesion kinase (FAK), an integrin-linked kinase, at the tyrosine 397 residue (Y397), which are indicative of integrin binding to a ligand. Co-administration of echistatin or specific function-blocking antibody to β1-integrin abolished the axonal/neuronal protective ability of the peptide. See Example 1.
# The protective effect of the […] peptides was dependent upon their ability to bind to β1-integrin receptor. […] Co-administration of specific function-blocking antibody to β1-integrin abolished the axonal protective ability of the GRGDSP (SEQ ID NO:3) peptide.
# axons = settings: insults such as vincristine, acrylamide, inflammatory mediators; Nguyen et al., 2009; cited from earlier work
# [6] = sampled 30, 60, 120, 240 minutes
molecule,measurement,setting,value
N=C(N)NCCC[C@@H]1NC(=O)CNC(=O)[C@@H]2CCCN2C(=O)[C@H](CO)NC(=O)[C@H](CC(=O)O)NC(=O)CNC1=O [cyclo-GRGDSP],EC50,"[1]; DRG explants exposed to 50 nM vincristine, FIG. 1E, read-out: EC50, axonal survival in cell culture",500 nM
same,neuronal death (TUNEL-positive cells),"[1]; associated with axonal protection, FIG. 1F",marked decreased in neuronal death
same,peptide detected in sciatic nerves,"[2]; all time points up to 4 hours, FIG. 2A",detected in high concentration
same,peptide detected in plasma,[2]; [6],detected
same,peptide levels in brain,[2]; [6],only evident in the first hour
same,severe gait instability,[3],largely prevented
same,"axonal swelling, beading and segmentation of Aβ fibers in the skin",[3],largely prevented
same,neuromuscular junction morphology,[3],normal
same,change in amplitudes of CMAP,[3],little to no change
same,axonal/neuronal degeneration and behavioral deficits,Trembler J mice,almost completely abolished
same,axonal/neuronal degeneration and behavioral deficits,MOG-EAE mice,almost completely abolished
same,axonal/neuronal degeneration and behavioral deficits,[4],almost completely abolished
"FRGDLG: RGD peptide, amino acid sequence FRGDLG (Synthetic Peptide, Linear or Cyclo)",stabilize the axon and prevent axonal/neuronal death,[5],sufficient to stabilize the axon and to prevent axonal/neuronal death
"FRGDSP: RGD peptide, amino acid sequence FRGDSP (Synthetic Peptide, Linear or Cyclo)",stabilize the axon and prevent axonal/neuronal death,[5],sufficient to stabilize the axon and to prevent axonal/neuronal death
"GRGDS: RGD peptide, amino acid sequence GRGDS (Synthetic Peptide, Linear or Cyclo)",stabilize the axon and prevent axonal/neuronal death,[5],sufficient to stabilize the axon and to prevent axonal/neuronal death
"GRGDSP: RGD peptide, amino acid sequence GRGDSP",axonal protective ability of the peptide,β1-integrin receptor; co-administration of specific function-blocking antibody to β1-integrin,abolished
"IRGDSP: RGD peptide, amino acid sequence IRGDSP (Synthetic Peptide, Linear or Cyclo)",stabilize the axon and prevent axonal/neuronal death,[5],sufficient to stabilize the axon and to prevent axonal/neuronal death
"KRGDNF: RGD peptide, amino acid sequence KRGDNF (Synthetic Peptide, Linear or Cyclo)",stabilize the axon and prevent axonal/neuronal death,[5],sufficient to stabilize the axon and to prevent axonal/neuronal death
"PRGDLT: RGD peptide, amino acid sequence PRGDLT (Synthetic Peptide, Linear or Cyclo)",stabilize the axon and prevent axonal/neuronal death,[5],sufficient to stabilize the axon and to prevent axonal/neuronal death
"RGDYK: RGD peptide, amino acid sequence RGDYK (Synthetic Peptide, Linear or Cyclo)",stabilize the axon and prevent axonal/neuronal death,[5],sufficient to stabilize the axon and to prevent axonal/neuronal death
"RRGDQT: RGD peptide, amino acid sequence RRGDQT (Synthetic Peptide, Linear or Cyclo)",stabilize the axon and prevent axonal/neuronal death,[5],sufficient to stabilize the axon and to prevent axonal/neuronal death
"cyclo-FRGDLP: cyclic RGD peptide of sequence FRGDLP (SEQ ID NO:8) (cyclic; Synthetic Peptide, Linear or Cyclo)",severe gait instability,[3],largely prevented
same,"axonal swelling, beading and segmentation of Aβ fibers in the skin",[3],largely prevented
same,neuromuscular junction morphology,[3],normal
same,change in amplitudes of CMAP,[3],little to no change
"cyclo-FRGDSP: cyclic RGD peptide of sequence FRGDSP (SEQ ID NO:9) (cyclic; Synthetic Peptide, Linear or Cyclo)",severe gait instability,[3],largely prevented
same,"axonal swelling, beading and segmentation of Aβ fibers in the skin",[3],largely prevented
same,neuromuscular junction morphology,[3],normal
same,change in amplitudes of CMAP,[3],little to no change
"cyclo-IRGDSP: cyclic RGD peptide of sequence IRGDSP (SEQ ID NO:15) (cyclic; Synthetic Peptide, Linear or Cyclo)",severe gait instability,[3],largely prevented
same,"axonal swelling, beading and segmentation of Aβ fibers in the skin",[3],largely prevented
same,neuromuscular junction morphology,[3],normal
same,change in amplitudes of CMAP,[3],little to no change
same,axonal/neuronal degeneration and behavioral deficits,Trembler J mice,almost completely abolished
same,axonal/neuronal degeneration and behavioral deficits,MOG-EAE mice,almost completely abolished
same,axonal/neuronal degeneration and behavioral deficits,[4],almost completely abolished
echistatin [reference compound],effect of co-administered blocker on axonal/neuronal protective ability of the peptide,β1-integrin receptor; co-administration with RGD peptide,abolished
B1,axonal survival / prevention of axonal degeneration caused by vincristine,axons,promotes axonal survival

# — US9555071B2, “Methods and compositions for the treatment of axonal and neuronal degeneration” (priority 2012, dated 2017)
